Experimental data published in ChEMBL document CHEMBL1147207 (Eur J Med Chem, 2007).
The source made the active and inactive calls. No cut-off for these calls is given here.

How the values were obtained:
[1] = molecular target: T1, Oxytocin receptor (Rattus norvegicus, UniProt P70536); experiment: Antagonist activity in rat uterus by uterotonic assay; format: functional, tissue-based; conditions: read-out: pA2 (converted)
T1 sequence (P70536 whole entry): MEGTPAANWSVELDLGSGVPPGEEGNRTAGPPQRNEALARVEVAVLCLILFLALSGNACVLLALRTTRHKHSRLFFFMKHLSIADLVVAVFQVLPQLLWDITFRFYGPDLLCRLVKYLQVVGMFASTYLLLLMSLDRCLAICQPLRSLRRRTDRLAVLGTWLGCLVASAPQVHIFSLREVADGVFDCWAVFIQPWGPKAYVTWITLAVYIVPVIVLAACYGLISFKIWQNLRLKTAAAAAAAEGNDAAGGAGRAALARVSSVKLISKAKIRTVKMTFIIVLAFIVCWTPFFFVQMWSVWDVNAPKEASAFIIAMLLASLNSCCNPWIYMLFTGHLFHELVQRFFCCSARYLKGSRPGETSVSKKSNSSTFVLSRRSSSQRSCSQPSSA

[2] = molecular target: T2, Oxytocin receptor (Rattus norvegicus) (UniProt P70536); experiment: Agonist activity in rat uterus by uterotonic assay; format: functional, tissue-based
T2 sequence (whole entry): T1 sequence (P70536 whole entry)

[3] = molecular target: T3, Oxytocin receptor (Homo sapiens, UniProt P30559); experiment: Displacement of [3H]OT from human OT receptor expressed in HEK cells; format: cell-based, HEK293
T3 sequence (P30559 whole entry): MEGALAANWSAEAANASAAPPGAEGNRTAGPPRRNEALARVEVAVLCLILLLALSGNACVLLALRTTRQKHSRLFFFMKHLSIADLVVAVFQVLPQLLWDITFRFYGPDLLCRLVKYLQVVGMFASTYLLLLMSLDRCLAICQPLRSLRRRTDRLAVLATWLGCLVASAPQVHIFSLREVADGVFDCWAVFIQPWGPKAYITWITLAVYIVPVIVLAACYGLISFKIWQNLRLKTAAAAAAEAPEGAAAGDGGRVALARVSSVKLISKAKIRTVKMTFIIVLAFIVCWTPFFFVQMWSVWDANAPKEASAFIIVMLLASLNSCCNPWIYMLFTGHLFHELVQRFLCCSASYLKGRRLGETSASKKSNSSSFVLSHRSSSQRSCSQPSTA

[4] = molecular target: Vasopressin V1a receptor (Rattus norvegicus) (UniProt P30560); experiment: Antagonist activity in phenoxybenzamine-treated rat by Pressor assay; conditions: read-out: pA2 (converted)
[5] = molecular target: Vasopressin V1a receptor (Rattus norvegicus) (UniProt P30560); experiment: Agonist activity in phenoxybenzamine-treated rat up to 0.16 mg/kg by Pressor assay

Sequence of Vasopressin V1a receptor (Rattus norvegicus) (P30560 whole entry, looked up): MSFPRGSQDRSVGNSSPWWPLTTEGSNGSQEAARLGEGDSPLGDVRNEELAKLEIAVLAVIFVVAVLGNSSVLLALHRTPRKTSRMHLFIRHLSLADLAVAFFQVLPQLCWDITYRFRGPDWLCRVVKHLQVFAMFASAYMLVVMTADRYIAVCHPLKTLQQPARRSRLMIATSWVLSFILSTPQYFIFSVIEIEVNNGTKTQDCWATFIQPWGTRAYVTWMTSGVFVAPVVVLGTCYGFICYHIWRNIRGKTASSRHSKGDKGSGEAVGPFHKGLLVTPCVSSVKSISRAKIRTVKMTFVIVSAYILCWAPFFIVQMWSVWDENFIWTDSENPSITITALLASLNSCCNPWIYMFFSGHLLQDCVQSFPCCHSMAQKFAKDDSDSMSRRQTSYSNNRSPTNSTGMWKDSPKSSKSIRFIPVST

Row | SMILES | Kb [1] | Activity [2] | IC50 [3] | Kb [4] | Activity [5]
1 | CCOc1ccc(CC2NC(=O)CCSSC[C@@H](C(=O)N3Cc4ccccc4C[C@H]3C(=O)N[C@@H](CC(C)C)C(=O)NCC(N)=O)NC(=O)[C@H](CC(N)=O)NC(=O)[C@H](CCC(N)=O)NC(=O)[C@H]([C@@H](C)CC)NC2=O)cc1 (stereo in doubt) | 15.8 nM | 0 IU/mg | 176 nM | > 1000 nM | inactive
2 | CC[C@H](C)[C@@H]1NC(=O)[C@H](Cc2ccc(O)cc2)NC(=O)[C@@H](N)CSSC[C@@H](C(=O)N2Cc3ccccc3C[C@H]2C(=O)N[C@@H](CC(C)C)C(=O)NCC(N)=O)NC(=O)[C@H](CC(N)=O)NC(=O)[C@H](CCC(N)=O)NC1=O | 2510 nM | 2 IU/mg | 130 nM | > 1000 nM | inactive
3 | CC[C@H](C)[C@@H]1NC(=O)[C@H](Cc2ccc(O)cc2)NC(=O)CCSSC[C@@H](C(=O)N2Cc3ccccc3C[C@H]2C(=O)N[C@@H](CC(C)C)C(=O)NCC(N)=O)NC(=O)[C@H](CC(N)=O)NC(=O)[C@H](CCC(N)=O)NC1=O | 35.5 nM | 3.5 IU/mg | 103 nM | > 1000 nM | inactive
